Assay results published in US20100292316A1, “IMPROVED THERAPEUTIC METHODS AND COMPOSITIONS COMPRISING CHROMAN RING COMPOUNDS” (Research Development Foundation, priority 2007, published 2010).

Key:
TSP-1 = TSP-1 mRNA (RT-PCR) and protein (Western blot) levels in human breast cancer cells; format: cell-based; details: 40 μM α-TEA; for peak TSP-1 mRNA levels, fold of VEH control: 6 h
Protocol: Whole-cell protein extracts were prepared as described previously (Yu et al., 1999), and 50 μg of protein was loaded per lane, separated using SDS-PAGE on a 10-15% gel under reducing conditions, and electroblotted onto a nitrocellulose membrane ([…] Optitran BA-S-supported nitrocellulose; Schleicher and Schuell, Keene, N.H.). Equal loading was verified using GAPDH antibody. Primary rabbit antibodies with specificity for PARP and primary goat antibody with specificity for Arg were purchased from Santa Cruz Biotechnology (Santa Cruz, Calif.). Horseradish peroxidase conjugated goat anti-rabbit or horseradish goat anti-mouse secondary antibody was purchased from Jackson Immunoresearch Laboratory (West Grove, Pa.). Horseradish peroxidase-conjugated donkey anti-goat serum was purchased from Santa Cruz Biotechnology. Immune complexes were visualized using enhanced chemiluminescence detection (Pierce Chemical Co., Rockford, Ill.). Fold differences in level of chemiluminescence were determined by densitometric analyses.
Total RNA was isolated from cells using RNeasy Protect Mini kit (Qiagen, Valencia, Calif.) according to manufacturer's instruction. Reverse transcription was performed as described above except using 15 μg of total RNA as template. Polymerase chain reaction (PCR) with Arg primers 30 cycles in volumes of 50 μl according to the manufacturer's protocol (Taq PCR Master Mix Kit; Qiagen, Valencia, Calif.). Primers used in the analyses were: Arg, forward (5′-CAGTGATGCCTCCACCTCAA-3′; SEQ ID NO:2) and reverse (5′-TTTCCCTCTCCCCTCAGAAAT-3′; SEQ ID NO:3) and for β-actin (loading control), forward (5′-GGCGGCACCACCATGTACCCT-3′; SEQ ID NO:4) and reverse (5′-AGGGGCCGGACTCGTCATACT-3′; SEQ ID NO:5) (Invitrogen, Carlsbad, Calif.). The amplification reaction involved denaturation at 95° C. for 30 seconds, annealing at 52° C. for 30 seconds, and extension at 72° C. for 30 seconds (for Arg) using a PTC-225 thermal cycler (MJ Research, San Francisco, Calif.). The PCR products were resolved on 1% agarose gels and visualized by ethidium bromide staining.
Western blot analyses with a primary mouse antibody (Calbiochem (San Diego, Calif.)) was used to determine protein levels in treated versus untreated MDA-MB-435 and MCF-7 human breast cancer cells (FIG. 2B). […] 66c1-4-GFP cells are a mouse mammary tumor cell line originally derived from a spontaneous mammary tumor in a Balb/cfC3H mouse and later isolated as a 6-thioguanine-resistant clone. The cells were subsequently stably transfected with the enhanced GFP (Lawson et al., 2003). […] In MCF-7 cells, peak TSP-1 mRNA levels at 6 h were 1.3-fold of the VEH control and peak TSP-1 protein levels at 24 h were 2.4-fold of the VEH control. […]

LNCaP cells = assay: Apoptosis by DAPI staining, LNCaP; format: cell-based, human
Protocol: Cells were plated at 2×10^6 in 100 mm cell culture plates, cultured overnight and washed with serum free media before transfection. Plasmids (0.7 μg or 4.2 of μg) or empty vector (pcDNA3) were mixed with 50 μl or 300 μl serum free media and 4 μl or 24 μl PLUS reagent (Invitrogen, CA) and incubated for 15 min at room temperature. Next 2 μl or 12 μl of Lipofectamine reagent (Invitrogen, CA) in 50 μl or 300 μl serum free media were added and the mixture incubated for another 15 min before adding to the cells in 0.5 ml or 5 ml serum free media. Cells were incubated with transfection reagents for 3 h and the growth media containing 2×FBS was added to the cells. Transfected cells were cultured overnight before α-TEA treatment. Transfection efficiency was determined to be 70% using GFP expressing plasmid.
Assessment of apoptosis based on nuclear morphology using 4′, 6-diamidino-2-phenylindole dihydrochloride (DAPI; Boehringer Mannheim Corp. Indianapolis, Ind.) has been described previously (Yu et al., 2003; Israel et al., 2000). Briefly, 1.5×10^5/well LNCaP or PC-3-GFP cells were plated in 12-well tissue culture plates and cultured overnight to allow cells to attach. On the next day, cells were treated with various concentrations of α-TEA and incubated for various time periods. At the end of treatments, cells were collected, washed with PBS, stained with 25 μl of 2 μg/ml DAPI, and viewed under a fluorescent microscope (model ICM 405 with a model 487701 filter, Zeiss). Cells which contained clearly condensed chromatin or fragmented nuclei were scored as apoptotic cells. ≧500 cells were counted in each sample. Apoptotic data are presented as percentage of apoptotic cells±S.D. for three independent experiments.
FOXO1 siRNA used in the study was purchased from Santa Cruz (Santa Cruz, Calif.). […] Transfection of human prostate cancer cells with FOXO1 siRNA or negative control siRNA was performed in 100 mm cell culture dishes at a density of 2×10^6 cells/dish using Lipofectamine 2000 (Invitrogen, Carlsbad, Calif.) and 300 pmol of siRNA duplex, resulting in a final siRNA concentration of 30 nM. siRNA transfected cells were incubated for 48-72 h prior to α-TEA treatment.

FlipL = FlipL protein level by immunoblot; format: cell-based, human; details: LNCaP and PC-3-GFP cells, 40 μM α-TEA, time-dependent
Excerpt: Antibodies to human Flip and survivin used in these experiments were purchased from Santa Cruz Biotechnology (Santa Cruz, Calif.).

`Cc1c(C)c2c(c(C)c1OCC(=O)O)CC[C@@](C)(CCC[C@H](C)CCC[C@H](C)CCCC(C)C)O2` [α-TEA] was tested, and the “peak TSP-1 mRNA levels, fold of VEH control” value (TSP-1; MCF-7 cells) was 1.3 fold, the “peak TSP-1 protein levels, fold of VEH control” value (TSP-1; MCF-7 cells, 24 h) was 2.4 fold and the “peak TSP-1 mRNA levels, fold of VEH control” value (TSP-1; MDA-MB-435 cells) was 1.8 fold. The “peak TSP-1 protein levels, fold of VEH control” value (TSP-1; MDA-MB-435 cells, 15 h) was 4.7 fold, the “decrease in percentage of apoptotic cells in cells expressing constitutively active Akt1 vs empty vector” value (LNCaP cells; 15 μM α-TEA) was 21% and the “decrease in percentage of apoptotic cells in cells expressing constitutively active Akt1 vs empty vector” value (LNCaP cells; 20 μM α-TEA) was 24%. The “decrease in percentage of apoptotic cells in cells expressing constitutively active Akt2 vs empty vector” value (LNCaP cells; 20 μM α-TEA) was 10%, the “α-TEA-induced apoptosis on overexpression of wild type or constitutively active FOXO1” value (LNCaP cells; 40 μM α-TEA 15 h, P<0.009) was “increased” and the “protein levels of FlipL” value (FlipL) was “downregulated”.
